Data set [1] in a line: Solubility test (DMSO precipitation method, Pharmacopoeia of Japan elution test second solution). In kind it is physicochemical. The note with it: aqueous buffer, kinetic from dmso stock; Pharmacopoeia of Japan elution test second solution pH=6.8, room temperature, five hours; quantitation range 5 to 100 μM. In outline: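 Test compound from 10 mM DMSO stock added to JP elution test second solution (pH 6.8), stirred 5 h at room temperature, then suction-filtered. Filtrate diluted in acetonitrile with internal standard and quantified by LC-MS/MS against a calibration curve (quantitation range 5 to 100 μM).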

Data set [2] is described as follows: Evaluation of stability in human liver microsome. As to conditions: human, 15 min, 5 μmol/L, pH 7.4. In kind it is in vitro ADME. The protocol:
A test compound (10 mmol/L DMSO solution, 5 μL) was diluted with 50% acetonitrile aqueous solution (195 μL) to prepare 0.25 mmol/L solution.
To a reactor vessel which had been warmed to 37° C. in advance, 0.5 mg/mL of human liver microsome (Xenotech) and 245 μL of 0.1 M phosphate buffer solution (pH 7.4) including NADPH-Co-factor (BD Biosciences) were added, followed by preincubation for five minutes. Then, the above-mentioned test compound solution (5 μL) was added so as to start reaction (final concentration: 5 μmol/L). Immediately after the start, 20 μL was harvested and added to 180 μL of acetonitrile including an internal standard substance (warfarin) to stop the reaction. This solution (20 μL) was stirred with 180 μL of 50% acetonitrile aqueous solution on a plate equipped with a deproteinization filter. Then, the resulting mixture solution was subjected to suction filtration. The filtrate was adopted as a standard sample.
The above-mentioned reaction solution was incubated at 37° C. for 15 minutes, and 20 μL of the solution was added to 180 μL of cooled acetonitrile (including warfarin that is an internal standard substance) to stop the reaction. This solution (20 μL) was stirred with 180 μL of 50% acetonitrile aqueous solution on a plate equipped with a deproteinization filter, and then the resulting mixture solution was subjected to suction filtration. The filtrate was adopted as a reaction sample.
Residual rate (%) was obtained as follows: 1 μL of the sample solution was infused into LC-MS/MS (Discovery Max manufactured by Thermo Scientific), and a quotient obtained by dividing a peak area ratio of the reaction sample (peak area of test compound/peak area of internal standard substance) was divided by the peak area ratio of the standard sample was multiplied by 100.

Data set [3] has as its target Human KCNQ2/3 channel (Homo sapiens (Human), UniProt O43525+O43526). Kind of data set: Opening action with respect to KCNQ2/3 channel by depolarization stimulation (thallium influx, FLIPR). The format is cell-based. The note with it: concentration giving 50% of maximum reaction of retigabine (10 μM); human KCNQ2/3 expression CHO-DHFR- cells; 5 mM potassium and 0.5 mM thallium; read-out: KCNQ2/3 ECrtg50. A digest of the protocol: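 CHO-DHFR- cells expressing human KCNQ2/3, loaded with FluxOR thallium dye 60 min at room temperature. Compound added 5 min before depolarisation with 5 mM K+ and 0.5 mM Tl+; fluorescence change over 180 s read on FLIPR. ECrtg50 is the concentration giving 50% of the maximal response to 10 μM retigabine.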

Data set [4] has as its target hERG channel (Homo sapiens (Human), UniProt Q12809). Kind of data set: Evaluation of action on hERG IKr current (patch-clamp). As to conditions: HEK293 cell overexpressing hERG, maximum tail current, 10 minutes after application; read-out: IC50 (50% inhibitory activity of hERG channel). The format is cell-based. The protocol: Using HEK293 cell overexpressing a human ether-a-go-go-related gene (hERG), the maximum tale current of the hERG IKr current induced by redepolarization pulse subsequent to depolarization pulse was measured by a patch-clamp method.

For data set [5], the system named is urinary bladder extracted from rat. Kind of data set: Relaxing action on urinary bladder extracted from rat (rat Magnus test). As to conditions: concentration at which tension change rate is -20%; carbachol 1 μM-induced contraction of rat urinary bladder strips. Here is the method: Female Jcl Wistar rats (CLEA Japan, Inc., body weight in use: 170 to 200 g) were anesthetized by intraperitoneal administration of about 40 mg/kg of pentobarbital (Somnopentyl, Schering Plough Animal Health Corporation), and killed by bloodletting, followed by abdominal incision to extract the urinary bladder. Immediately, the extracted urinary bladder was immersed in ice-cooled Krebs buffer (Krebs Ringer bicarbonate buffer (Sigma-Aldlich Co.) containing sodium hydrogencarbonate (final concentration: 15 mM) and calcium chloride (final concentration: 2.5 mM)) which had been saturated with a mixed gas (95% O2, 5% CO2).
The urinary bladder bodies were cut in the longitudinal direction to prepare strip specimens (about 10×3 mm) on ice. Immediately, the prepared specimens were suspended in a Magnus tube with 500 mg of tension loaded. The tube was filled with Krebs buffer (37° C.) aerated with a mixed gas. Note here that specimens were prepared within 24 hours after extraction of the tissue.
When one hour or more had passed after the specimen was suspended, 2.5M KCl was added so that the final concentration became 100 mM, specimens showing contraction reaction were used.
Carbachol (a contraction-inducing substance) at the concentration of contraction of 1 μM was used to induce contraction. […] After the contraction reaction was stabilized, a physiological salt solution or the compound of the present invention was added in a cumulative manner from low concentration such that the final concentration became 1, 10, 100 nM, 1 and 10 μM.
The tension (mg) of the extracted urinary bladder was employed as an evaluation parameter. The tension was read by using analysis software WAVE THERMO 1000. Tension after addition of the contraction-inducing substance was set to 0%. The change rate of the tension after addition of the compound of the present invention relative to the tension after addition of the contraction-inducing substance was defined as tension change rate (%). The tension change rate (%) was adopted as an evaluation indicator. The tension change rate (%) is calculated from the following formula. Tension change rate (%)={Tension after addition of compound of the present invention and the like (mg)−Tension before addition of contraction-inducing substance (mg)}/{Tension after addition of contraction-inducing substance (mg)−Tension before addition of contraction-inducing substance (mg)}×100−100
The value at which the tension change rate (%) was −20% was calculated as IC20, and the value was adopted as an indicator of the relaxing action of the extracted urinary bladder.

Converted amounts (≈) assume the structure as drawn.

hERG channel, sequence (Q12809 whole entry): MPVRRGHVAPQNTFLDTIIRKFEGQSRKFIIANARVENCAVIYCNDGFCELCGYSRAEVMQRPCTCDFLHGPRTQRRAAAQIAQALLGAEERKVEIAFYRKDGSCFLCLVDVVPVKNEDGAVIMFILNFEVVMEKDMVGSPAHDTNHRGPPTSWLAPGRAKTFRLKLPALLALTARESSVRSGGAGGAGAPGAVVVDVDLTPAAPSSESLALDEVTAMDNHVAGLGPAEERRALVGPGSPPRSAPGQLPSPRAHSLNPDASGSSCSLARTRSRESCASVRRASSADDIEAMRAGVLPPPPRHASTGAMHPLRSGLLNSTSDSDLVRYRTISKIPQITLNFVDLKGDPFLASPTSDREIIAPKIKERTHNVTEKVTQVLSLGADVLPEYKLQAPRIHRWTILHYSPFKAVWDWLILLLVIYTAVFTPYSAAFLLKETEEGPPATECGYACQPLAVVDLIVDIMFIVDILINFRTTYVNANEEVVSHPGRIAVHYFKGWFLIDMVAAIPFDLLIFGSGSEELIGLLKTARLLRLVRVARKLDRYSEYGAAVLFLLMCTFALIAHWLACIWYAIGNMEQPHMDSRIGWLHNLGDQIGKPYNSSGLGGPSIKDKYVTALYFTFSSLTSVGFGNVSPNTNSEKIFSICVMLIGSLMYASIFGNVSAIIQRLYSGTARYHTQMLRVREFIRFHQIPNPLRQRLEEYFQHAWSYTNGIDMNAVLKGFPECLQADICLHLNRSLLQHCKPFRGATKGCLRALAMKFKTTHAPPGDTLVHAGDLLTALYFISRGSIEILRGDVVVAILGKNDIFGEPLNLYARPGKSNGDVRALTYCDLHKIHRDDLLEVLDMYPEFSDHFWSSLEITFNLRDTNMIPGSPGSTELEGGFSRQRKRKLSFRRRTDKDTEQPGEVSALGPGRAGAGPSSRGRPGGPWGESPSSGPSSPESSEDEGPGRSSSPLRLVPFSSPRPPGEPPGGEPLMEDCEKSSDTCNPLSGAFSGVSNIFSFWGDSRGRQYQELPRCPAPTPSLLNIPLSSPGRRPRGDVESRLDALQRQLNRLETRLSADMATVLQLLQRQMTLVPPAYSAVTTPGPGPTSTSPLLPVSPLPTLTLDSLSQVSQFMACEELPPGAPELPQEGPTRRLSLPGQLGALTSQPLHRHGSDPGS

Compound `O=C(NCc1cnc(C(F)(F)F)nc1)Nc1c(Cl)cc([C@H](O)C(F)(F)F)cc1Cl` [Example 35 (3), 1-{2,6-dichloro-4-[(1S)-2,2,2-trifluoro-1-hydroxyethyl]phenyl}-3-{[2-(trifluoromethyl)-5-pyrimidinyl]methyl}urea] registered a solubility at 5 h in data set [1] of 87 µM (≈ 40.3 µg/mL). Further, the Residual rate in data set [2] is recorded as 100%. Further, the EC50 in data set [3] is 300 nM. Further, in data set [4], the IC50 is > 10000 nM. Moreover, the 20% effect level in data set [5] (IC20) was put at 100 nM.
Compound `O=C(NCc1cnc(C(F)(F)F)s1)Nc1c(Cl)cc([C@H](O)C(F)(F)F)cc1Cl` [Example 36, 1-{2,6-dichloro-4-[(1S)-2,2,2-trifluoro-1-hydroxyethyl]phenyl}-3-{[2-(trifluoromethyl)-1,3-thiazole-5-yl]methyl}urea] yielded a solubility at 5 h in data set [1] of 44 µM (≈ 20.6 µg/mL). Further, in data set [2], the Residual rate is given as 100%. In data set [3], the EC50 was 30 nM. For the same compound, the 50% inhibitory concentration (IC50) in data set [4] is > 10000 nM. This compound displayed a 20% effect concentration (IC20) in data set [5] of 10 nM.

Source of the values: patent US10676438B2, “KCNQ2-5 channel activator” (Ono Pharmaceutical Co., Ltd., priority 2014, dated 2020).
